Data on 3 compounds can be found in patent publication US9259399B2, “Targeting CDK4 and CDK6 in cancer therapy” (Cornell University, priority 2007, dated 2016).

“Also recorded” adds a separate entry of the source. Residues, ends and D or L forms follow the SMILES beside them. *: point of attachment. Cbz = O=C(OCc1ccccc1)*; CH2F = FC*

One series has as its system IL-6Rα, gp130, Stat3. Nature of the series: IL-6 signaling in myeloma cells (surface IL-6Rα, gp130, p-Stat3). Type of series: cell-based, human. To be noted: for expression of surface IL-6Rα (gp80): PD 0332991 0.25 μM, bortezomib 4 nM; for surface gp130: PD 0332991, bortezomib 4 nM, or both. The procedure:
Viable cells were obtained by Ficoll density centrifugation (GE Healthcare, Piscataway, N.J.). Cytosolic and mitochondrial fractions were isolated as described (Yang et al., 1997). Whole cells or purified mitochondria were lysed in a buffer containing 10 mM Tris-HCl, pH 7.5, 150 mM NaCl, 5 mM EDTA, 1% Triton X-100, and protease inhibitors. For detection of phosphorylated Stat3, cells were lysed in a buffer containing 20 mM Tris, pH 7.5, 150 mM NaCl, 1 mM EDTA, 1 mM EGTA, 1% Triton X-100, 2.5 mM sodium pyrophosphate, 1 mM β-glycerophosphate, 1 mM Na3VO4, and protease inhibitors. Immunoblotting was performed as described in Huang et al. (2004). Signals were developed with the SuperSignal West Femto Maximum Sensitivity Substrate (Pierce Biotechnology, Rockford, Ill.).

In a further series the test system is Luc+GFP+MM1.S cells. Nature of the series: NOD/SCID xenograft human myeloma model (bioluminescence imaging). It is filed as in vivo, NOD/SCID mice. The note with it: for MMD in human myeloma cells vs mouse BM cells in vivo: bortezomib 0.25 mg/kg, with or without PD 0332991 150 mg/kg pretreatment; for tumor development (BLI): day 8, PD 0332991 150 mg/kg daily 3 days, bortezomib 0.25 mg/kg days 4 and 7.

In another series the test system is HMCLs, including MM1.S. Nature of the series: BrdU-uptake and DNA content (cell cycle) in human myeloma cell lines. Type of series: cell-based. To be noted: for proportion of cells in S phase: PD 0332991 0.25 μM 24 h. The procedure:
Cells were incubated with 5-bromo-2-deoxyuridine (BrdU, 5 μg/ml; Sigma) at 37° C. for 30 min (HMCLs) or 16 h (BMM cells). Cells were fixed with 70% ethanol overnight at 4° C., incubated with 0.4 mg/ml pepsin for 20 min at room temperature and 2N HCl for 10 min at 37° C. Samples were washed with 50 mM sodium borate (pH 8.5) and then 0.1% BSA/PBS. To detect BrdU, cells were incubated with a FITC-conjugated anti-BrdU mouse mAb (Roche Diagnostics, Pleasanton, Calif.) for 30 min at room temperature. For DNA content analysis, cells were incubated further with 50 μg/ml propidium iodide and 100 U/ml ribonuclease A (Sigma) for 30 min at 37° C. Samples were analyzed by flow cytometry.

The subject of the next series is MM1.S cells. Nature of the series: Apoptosis pathway in myeloma cells (caspase/PARP cleavage, Bcl-2 family mRNA and protein, Smac release). It is filed as cell-based, human. As to the method:
Total RNA was isolated using the TRIzol reagent (Invitrogen). […] Reactions were carried out in triplicate in the ABI PRISM 7900 HT Sequence Detection System. The relative amount of products was determined by the comparative Ct method according to the manufacturer's instructions. Viable cells were obtained by Ficoll density centrifugation (GE Healthcare, Piscataway, N.J.). Cytosolic and mitochondrial fractions were isolated as described (Yang et al., 1997). Whole cells or purified mitochondria were lysed in a buffer containing 10 mM Tris-HCl, pH 7.5, 150 mM NaCl, 5 mM EDTA, 1% Triton X-100, and protease inhibitors. For detection of phosphorylated Stat3, cells were lysed in a buffer containing 20 mM Tris, pH 7.5, 150 mM NaCl, 1 mM EDTA, 1 mM EGTA, 1% Triton X-100, 2.5 mM sodium pyrophosphate, 1 mM β-glycerophosphate, 1 mM Na3VO4, and protease inhibitors. Immunoblotting was performed as described in Huang et al. (2004). Signals were developed with the SuperSignal West Femto Maximum Sensitivity Substrate (Pierce Biotechnology, Rockford, Ill.). For immunoprecipitation, lysate (50 μg of protein) was precleared with 20 μl of Protein G PLUS-agarose beads (Santa Cruz Biotechnology, Santa Cruz, Calif.) and incubated with rabbit anti-Bim, anti Bcl-XL (Cell signaling Technology), anti-Mcl1 (Santa Cruz), anti-Bak (Sigma) or mouse anti-Bcl-2 (DakoCytomation, Carpinteria, Calif.) overnight at 4° C. The immunocomplexes were collected by incubation with Protein G PLUS-agarose beads (Santa Cruz) and centrifugation. These immunocomplex samples were then analyzed by immunoblotting.

The subject of series [1] is primary CD138+ human BM myeloma (BMM) cells. The experiment in a line: Killing of primary myeloma cells co-cultured with HS-5 stromal cells. The note with it: for reduction of live BMM cells: 24 hours ex vivo, PD 0332991 1-2 μM.
Series [2] relates to CAG NOD/SCID myeloma model. The note with it: 150 mg/kg; by day 9; cited from earlier work.
Series [3] deals with myeloma, AML and solid tumor xenograft. To be noted: cited from earlier work.
Series [4] has as its system human osteoclast cultures. The experiment in a line: Osteoclast formation from bone marrow cells of multiple myeloma patients. Type of series: cell-based. The procedure:
Non-adherent mononuclear bone marrow cells from multiple myeloma patients were cultured in the presence of macrophage colony stimulating factor (M-CSF) and Receptor Activator for Nuclear Factor κ[…] (RANKL) for three weeks.

A further series relates to CDK4/6. To be noted: mantle cell lymphoma and acute myeloid leukemia cells ex vivo; cited from earlier work.
Series [5] deals with CDK4 and CDK6. To be noted: cited from earlier work.
Series [6] has as its system retinoblastoma (Rb)-positive tumor cells. The note with it: cited from earlier work.
Series [7] has as its system at least thirty-eight other types of kinases, including CDK2. The note with it: at concentrations below 5 μM, at least 38 other kinases; cited from earlier work.
In series [8] the test system is MM1.S and MM1.R human myeloma cell lines. The experiment in a line: Cytotoxic killing of myeloma cell lines (viability, mitochondrial membrane depolarization).
The test system of series [9] is CDK4 and CDK6. Nature of the series: Phase I/II clinical trial in multiple myeloma. It is filed as in vivo. To be noted: within the tolerable dose in humans; preliminary data.

Broadly, the IC50 is the point on the concentration scale where inhibition reaches its midpoint.

Regarding `CC(C)C[C@H](NC(=O)[C@H](Cc1ccccc1)NC(=O)c1cnccn1)B(O)O` [bortezomib], in the series on IL-6Rα, gp130, Stat3, the “expression of surface IL-6Rα (gp80)” value is given as “did not vary” and the “surface gp130” value was “only modestly”. Further, in the series with Luc+GFP+MM1.S cells, the “MMD in human myeloma cells vs mouse BM cells in vivo” value is listed as “differentially induced” and the “tumor development (BLI)” value is given as “only modestly reduced”. Further, the “cell cycle effect of bortezomib alone” value in the series on HMCLs, including MM1.S (bortezomib 6 nM alone) was “striking loss of cells in the S phase”. Moreover, the “TRAIL mRNA” value with MM1.S cells (q-RT-PCR) is “marginal increase”. In addition, in the series with MM1.S cells (q-RT-PCR, bortezomib 4 nM 12 h, with or without PD 0332991 0.25 μM 24 h), the “Bim and MCL-1 mRNAs” value was “coordinately elevated”. In addition, the “reduction of live BMM cells” value in series [1] is on record as “greater”.
In the case of `CC(=O)c1c(C)c2cnc(Nc3ccc(N4CCNCC4)cn3)nc2n(C2CCCC2)c1=O` [PD 0332991, 6-acetyl-8-cyclopentyl-5-methyl-2-[5-piperazin-1-yl-pyridin-2-ylamino)-8H-pyrido[2,3-d]pyrimidin-7-one], in the series on IL-6Rα, gp130, Stat3, the Stat3 protein entry was “reduction of Stat3 protein”, the “expression of surface IL-6Rα (gp80)” value was “virtually eliminated” and the “surface gp130” value was “only modestly”. Besides, in the series on Luc+GFP+MM1.S cells, the “MMD in human myeloma cells vs mouse BM cells in vivo” value is “augmented” and the “tumor development (BLI)” value was “only modestly reduced”. The “time G1 arrest and synchronous S phase entry were maintained in the absence of apoptosis” value with HMCLs, including MM1.S (MM1.S cells cultured with PD 0332991) is given as “at least 6 days”. Further, in the series with HMCLs, including MM1.S (PD 0332991 0.25 μM), the G1 arrest result was “complete G1 arrest; also recorded: marked accumulation of G1 cells”. The “proportion of cells in S phase” value in the series with HMCLs, including MM1.S (12 hours after removal) is 65%. Besides, the “proportion of cells in S phase” value with HMCLs, including MM1.S (18 hours after removal) amounted to 67%. Besides, the tumor burden entry in [2] is on record as “reduced tumor burden profoundly”. Besides, the “myeloma tumor growth upon discontinuation” value in series [3] (after discontinuation of PD 0332991) is on record as “resumed upon discontinuation”. Moreover, in series [3] (myeloma, AML and solid tumor xenograft models), the tumor growth entry is listed as “suppressed tumor growth”. This compound also showed an IC50 in series [4] (Homo sapiens, Osteoclast, 504 h, treatment for 3 weeks) of 50 nM. In addition, in series [4] (first week, but not second or third week), the “time course of treatment on osteoclast formation” value is recorded as “sufficient to inhibit osteoclast formation”. In addition, the “inhibition of CDK4/6” value in the series with CDK4/6 is on record as “effectively inhibited”. Also, the IC50 with CDK4 and CDK6 [5] (freshly isolated primary human BMM cells and HMCLs ex vivo, read-out: IC50, inhibition of CDK4 and CDK6) was 60 nM. Moreover, the “cell cycle outcome of CDK4/CDK6 inhibition” value in the series on CDK4 and CDK6 [5] (primary BMM cells and HMCLs) is reported as “exclusive G1 arrest unaccompanied by apoptosis; also recorded: exclusive G1 arrest in the absence of apoptosis”. Also, the anti-proliferative activity result in series [6] is “potent anti-proliferative agent”. Moreover, the “activity against other kinases” value in [7] is on record as “does not cross react; also recorded: little or no activity”. The “killing of Dex-resistant MM1.R cells by low dose bortezomib after PD 0332991” value in series [8] (MM1.R cells, 24 hours) is reported as “virtual eradication of cells”. The “bortezomib killing after prior G1 arrest” value in [8] (PD 0332991 24 h, then bortezomib at high dose (250 nM) for 1 h, analysed 6 h later) is on record as “profoundly enhanced”. In addition, the “killing by low dose bortezomib added after PD 0332991 vs concurrently” value in series [8] (bortezomib 2-6 nM added 24 or 48 hours after PD 0332991) is “greater”. Moreover, the “MMD and viability, bortezomib added upon removal of PD 0332991 vs unsynchronized cells” value in series [8] (bortezomib 4 or 6 nM, continuous) was “greater MMD and loss of viability”. Besides, the “bortezomib killing during synchronous G1-S transition” value in series [8] (bortezomib pulse at 4 hours post PD 0332991 removal) was “augmented further”. In addition, in [8] (dexamethasone 5-50 nM), the “MMD and cytotoxic killing by low dose dexamethasone after G1 arrest” value is on record as “augmented”. Further, the “activation of caspase-8 by bortezomib after prior PD 0332991 treatment” value in the series with MM1.S cells is “similarly augmented”. In addition, the “Noxa mRNA and protein” value in the series on MM1.S cells (following PD 0332991-induced G1 arrest) is “no longer detectable”. The “inhibition of CDK4 and CDK6 and tumor cell division in patients” value in the series on CDK4 and CDK6 [9] is listed as “completely inhibits”. Moreover, in series [1], the “reduction of live BMM cells” value is on record as “greater”. In series [1] (PD 0332991 pretreatment 4 hours), the “sensitization of BMM cells from bortezomib-refractory patients (MM10)” value is recorded as “sufficient to sensitize”. The “sensitization of other bortezomib-refractory BMM cells (MM 8, MM 9)” value in series [1] (PD 0332991 pretreatment 24 hours) was “susceptible to bortezomib killing”. For the same compound, the “bortezomib killing after PD 0332991 pretreatment” value in series [1] (pretreatment 4-24 hours) is recorded as “markedly augmented”.
Turning to `COC(=O)C[C@H](NC(=O)[C@H](C)NC(=O)[C@@H](NC(=O)OCc1ccccc1)C(C)C)C(=O)CF` [ZVAD-FMK] (Cbz-Val-Ala-Asp(OMe)-CH2F), the “killing by PD-B in the presence of pan-caspase inhibitor” value in the series with MM1.S cells is “completely inhibited”.
